pEC50: −log10 of the molar value. Where a name gives a salt, the structure may show the parent alone.
The molecules below were run on NQO1 specific enzyme activity in BEAS-2B cells (marker for NRF2 activation) (assay: BEAS-2B NQO1 MTT Assay). Details: Homo sapiens, BEAS-2B, 48 h, NQO1 specific activity induction, 48 hours with compound.
Type: cell-based
Source text: NAD(P)H:quinone oxidoreductase 1 (NQO1), also called DT diaphorase, is a homodimeric FAD-containing enzyme that catalyzes obligatory NAD(P)H-dependent two-electron reductions of quinones and protects cells against the toxic and neoplastic effects of free radicals and reactive oxygen species arising from one-electron reductions. The transcription of NQO1 is finely regulated by NRF2, and thus NQO1 activity is a good marker for NRF2 activation. On day one, frozen BEAS-2B cells (ATCC) were thawed in a water bath, counted, and re-suspended at a concentration of 250,000 cells/mL. Fifty microliters of cells were plated in 384 well black clear-bottomed plates. Plates were incubated at 37° C., 5% CO2 overnight. On day two, plates were centrifuged and 50 nL of compound or controls were added to the cells. Plates were then incubated at 37° C., 5% CO2 for 48 hours. On day four, medium was aspirated from the plate and crude cell lysates were made by adding 13 uL of 1× Cell Signaling Technologies lysis buffer with 1 Complete, Mini, EDTA-free Protease Inhibitor Tablet (Roche) for each 10 mL of lysis buffer. After lysis plates were incubated for 20 minutes at room temperature. Two microliters of lysate were removed for use in Cell Titer Glo assay (Promega) and MTT cocktail was prepared (Prochaska et. al. 1998) for measurement of NQO1 activity. Fifty microliters of MTT cocktail was added to each well, plate was centrifuged, and analyzed on an Envision plate reader (Perkin Elmer) using Absorbance 570 nm label for 30 minutes. Product formation was measured kinetically and the pEC50 of NQO1 specific activity induction was calculated by plotting the change in absorbance (Delta OD/min) versus the log of compound concentration followed by 3-parameter fitting.
pEC50 is the negative log of the EC50.
EC50s<1 nM (+++++), EC50s 1 nM-10 nM (++++), EC50s 10 nM-100 nM (+++), EC50s 100 nM-1 uM (++), EC50s 1 uM-10 uM (+); EC50s>10 uM (−), or were not determined (ND).

Compared with Cc1ccc([C@H](OCc2cn(CCOCCn3cc(CO[C@@H](c4ccc(C)c(CN5C[C@@H](C)Oc6ccccc6S5(=O)=O)c4)C(C)(C)C(=O)O)nn3)nn2)C(C)(C)C(=O)O)cc1CN1C[C@@H](C)Oc2ccccc2S1(=O)=O (relative stereo) [Example 50, (R,rel-3S, rel-3′S)-3,3′-(((1,1′-(oxybis(ethane-2,1-diyl))bis(1H-1,2,3-triazole-4,1-diyl))bis(methylene))bis(oxy))bis(2,2-dimethyl-3-(4-methyl-3-(((R)-4-methyl-1,1-dioxido-3,4-dihydro-2H-benzo[b][1,4,5]oxathiazepin-2-yl)methyl)phenyl)propanoic acid)], Cc1ccc([C@@H](OCc2cn(CCOCCn3cc(CO[C@H](c4ccc(C)c(CN5C[C@@H](C)Oc6ccccc6S5(=O)=O)c4)C(C)(C)C(=O)O)nn3)nn2)C(C)(C)C(=O)O)cc1CN1C[C@@H](C)Oc2ccccc2S1(=O)=O (relative stereo) [Example 51, (R,rel-3R, rel-3′R)-3,3′-(((1,1′-(oxybis(ethane-2,1-diyl))bis(1H-1,2,3-triazole-4,1-diyl))bis(methylene))bis(oxy))bis(2,2-dimethyl-3-(4-methyl-3-(((R)-4-methyl-1,1-dioxido-3,4-dihydro-2H-benzo[b][1,4,5]oxathiazepin-2-yl)methyl)phenyl)propanoic acid)] is lower in pEC50: 7.00 to 8.00 for the first, 5.00 to 6.00 for the second. The first is the more potent here.

First: CCn1cc(CO[C@@H](c2ccc(C)c(CN3C[C@@H](C)Cc4ncccc4S3(=O)=O)c2)C(C)(C)C(=O)O)nn1 [Example 72, (3S)-((1-ethyl-1H-1,2,3-triazol-4-yl)methoxy)-2,2-dimethyl-3-(4-methyl-3-(((S)-4-methyl-1,1-dioxido-4,5-dihydropyrido[2,3-f][1,2]thiazepin-2(3H)-yl)methyl)phenyl)propanoic acid]
Second: CCn1cc(CO[C@@H](c2ccc(C)c(CN3C[C@H](C)Cc4ncccc4S3(=O)=O)c2)C(C)(C)C(=O)O)nn1 [Example 64, (3S)-((1-ethyl-1H-1,2,3-triazol-4-yl)methoxy)-2,2-dimethyl-3-(4-methyl-3-(((R)-4-methyl-1,1-dioxido-4,5-dihydropyrido[2,3-f][1,2]thiazepin-2(3H)-yl)methyl)phenyl)propanoic acid]
The pEC50 of the first is higher: 7.00 to 8.00 for the first, 6.00 to 7.00 for the second. The first is the more potent here.

Cc1ccc(C(OCc2cn(Cc3cccc(Cn4cc(CCCCO)nn4)c3)nn2)C(C)(C)C(=O)O)cc1CN1C[C@@H](C)Oc2ccccc2S1(=O)=O (stereo partly drawn) [Example 42, 3-((1-(3-((4-(4-Hydroxybutyl)-1H-1,2,3-triazol-1-yl)methyl)benzyl)-1H-1,2,3-triazol-4-yl)methoxy)-2,2-dimethyl-3-(4-methyl-3-(((R)-4-methyl-1,1-dioxido-3,4-dihydro-2H-benzo[b][1,4,5]oxathiazepin-2-yl)methyl)phenyl)propanoic acid] and Cc1ccc(C(OCc2cn(Cc3cccc(Cn4cc(CO)nn4)c3)nn2)C(C)(C)C(=O)O)cc1CN1C[C@@H](C)Oc2ccccc2S1(=O)=O (stereo partly drawn) [Example 39, 3-((1-(3-((4-(Hydroxymethyl)-1H-1,2,3-triazol-1-yl)methyl)benzyl)-1H-1,2,3-triazol-4-yl)methoxy)-2,2-dimethyl-3-(4-methyl-3-(((R)-4-methyl-1,1-dioxido-3,4-dihydro-2H-benzo[b][1,4,5]oxathiazepin-2-yl)methyl)phenyl)propanoic acid] fall in the same range of pEC50: 7.00 to 8.00 for the first, 7.00 to 8.00 for the second.

Compared with CC[C@H]1Cc2ccccc2S(=O)(=O)N(Cc2cc([C@H](OCc3cn(CC)nn3)C(C)(C)C(=O)O)ccc2C)C1 [Example 81, (3S)-((1-ethyl-1H-1,2,3-triazol-4-yl)methoxy)-2,2-dimethyl-3-(4-methyl-3-(((S)-4-ethyl-1,1-dioxido-4,5-dihydrobenzo[f][1,2]thiazepin-2(3H)-yl)methyl)phenyl)propanoic acid], CC[C@@H]1CN(Cc2cc([C@@H](OCc3cn(CC)nn3)C(C)(C)C(=O)O)ccc2C)S(=O)(=O)c2ccccc2O1 [Example 5, (R)-3-(3-(((R)-4-ethyl-1,1-dioxido-3,4-dihydro-2H-benzo[b][1,4,5]oxathiazepin-2-yl)methyl)-4-methylphenyl)-3-((1-ethyl-1H-1,2,3-triazol-4-yl)methoxy)-2,2-dimethylpropanoic acid] is higher in pEC50: 8.00 to 9.00 for the first, greater than 9.00 for the second. The second is the more potent here.

First: CC[C@@H]1CN(Cc2cc([C@H](OCc3cn(CC)nn3)C(C)(C)C(=O)O)ccc2C)Cc2ncccc2O1 [Example 114, (S)-methyl 3-((1-ethyl-1H-1,2,3-triazol-4-yl)-methoxxy)-3-(3-(((R)-2-ethyl-2,3-dihydropyrido[2,3-f][1,4]oxazepin-4(5H)-yl)methyl)-4-methylphenyl)-2,2-dimethyl-propanoic acid, trifluoroacetate]
Second: CC[C@@H]1CN(Cc2cc([C@H](OCc3cn(CC)nn3)C(C)(C)C(=O)O)ccc2C)Cc2ccccc2O1 [Example 118]
The pEC50 of the first is higher: 6.00 to 7.00 for the first, 5.00 to 6.00 for the second.

First: CC[C@@H]1CN(Cc2cc(C(OCc3cn(CC)nn3)C(F)(F)C(=O)O)ccc2C)S(=O)(=O)c2ccccc2O1 (stereo partly drawn) [Example 60, 3-(3-(((R)-4-Ethyl-1,1-dioxido-3,4-dihydro-2H-benzo[b][1,4,5]oxathiazepin-2-yl)methyl)-4-methylphenyl)-3-((1-ethyl-1H-1,2,3-triazol-4-yl)methoxy)-2,2-difluoropropanoic acid]
Second: CCCn1cc(CO[C@H](c2ccc(C)c(CN3C[C@@H](CC)Oc4ccccc4S3(=O)=O)c2)C(C)(C)C(=O)O)nn1 [Example 90, (R)-3-(3-(((R)-4-ethyl-1,1-dioxido-3,4-dihydro-2H-benzo[b][1,4,5]oxathiazepin-2-yl)methyl)-4-methylphenyl)-2,2-dimethyl-3-((1-propyl-1H-1,2,3-triazol-4-yl)methoxy)propanoic acid]
The pEC50 of the first is lower: 6.00 to 7.00 for the first, greater than 9.00 for the second.

First: Cc1ccc([C@@H](OCc2cn(CCOCCN=[N+]=[N-])nn2)C(C)(C)C(=O)O)cc1CN1C[C@@H](C)Oc2ccccc2S1(=O)=O (single isomer, unassigned) [Example 15]
Second: CC[C@@H]1CN(Cc2cc([C@@H](OCc3cn(C)nn3)C(C)(C)C(=O)O)ccc2C)S(=O)(=O)c2ccccc2O1 [Example 120, (R)-3-(3-(((R)-4-Ethyl-1,1-dioxido-3,4-dihydro-2H-benzo[b][1,4,5]oxathiazepin-2-yl)methyl)-4-methylphenyl)-2,2-dimethyl-3-((1-methyl-1H-1,2,3-triazol-4-yl)methoxy)propanoic acid]
The pEC50 of the first is lower: 7.00 to 8.00 for the first, greater than 9.00 for the second.

First: CCCn1cc(CO[C@H](c2ccc(C)c(CN3C[C@H](C)Cc4ccc(C(F)(F)F)cc4S3(=O)=O)c2)C(C)(C)C(=O)O)nn1 [Example 79, (R)-2,2-dimethyl-3-(4-methyl-3-(((R)-4-methyl-1,1-dioxido-8-(trifluoromethyl)-4,5-dihydrobenzo[f][1,2]thiazepin-2(3H)-yl)methyl)phenyl)-3-((1-propyl-1H-1,2,3-triazol-4-yl)methoxy)propanoic acid]
Second: Cc1ccc([C@@H](OCc2cn(Cc3ccc(Cn4cc(CO[C@H](c5ccc(C)c(CN6C[C@@H](C)Oc7ccccc7S6(=O)=O)c5)C(C)(C)C(=O)O)nn4)cc3)nn2)C(C)(C)C(=O)O)cc1CN1C[C@@H](C)Oc2ccccc2S1(=O)=O (relative stereo) [Example 49, (R,rel-(3R,3′R))-3,3′-(((1,1′-(1,4-phenylenebis(methylene))bis(1H-1,2,3-triazole-4,1-diyl))bis(methylene))bis(oxy))bis(2,2-dimethyl-3-(4-methyl-3-(((R)-4-methyl-1,1-dioxido-3,4-dihydro-2H-benzo[b][1,4,5]oxathiazepin-2-yl)methyl)phenyl)propanoic acid)]
The pEC50 of the first is higher: 8.00 to 9.00 for the first, 6.00 to 7.00 for the second. The first is the more potent here.

— patent US12091409B2, “Ether linked triazoles as NRF2 activators” (ASTEX THERAPEUTICS LIMITED, priority 2016, dated 2024)
